Results from US20260217708A1, “FUSED BENZAZEPINE DERIVATIVES FOR USE IN THE TREATMENT OF CANCER AND EPILEPSY” (UCB BIOPHARMA SRL, priority 2023, published 2026).

Experiments:
system Xc^− [1] = molecular target: T1, system Xc^− (Homo sapiens, UniProt Q9UPY5); assay: Cystine-induced glutamate release assay; assay type: cell-based; design: endogenous in cells; host or cells: H4 cells; conditions: H4 cells, sodium-free HEPES buffer, 50 μM L-Cystine, 2 hours, Amplex Red glutamate readout; read-out: pIC50 Cystine-induced glutamate release assay (converted)
T1 sequence (Q9UPY5 1-501): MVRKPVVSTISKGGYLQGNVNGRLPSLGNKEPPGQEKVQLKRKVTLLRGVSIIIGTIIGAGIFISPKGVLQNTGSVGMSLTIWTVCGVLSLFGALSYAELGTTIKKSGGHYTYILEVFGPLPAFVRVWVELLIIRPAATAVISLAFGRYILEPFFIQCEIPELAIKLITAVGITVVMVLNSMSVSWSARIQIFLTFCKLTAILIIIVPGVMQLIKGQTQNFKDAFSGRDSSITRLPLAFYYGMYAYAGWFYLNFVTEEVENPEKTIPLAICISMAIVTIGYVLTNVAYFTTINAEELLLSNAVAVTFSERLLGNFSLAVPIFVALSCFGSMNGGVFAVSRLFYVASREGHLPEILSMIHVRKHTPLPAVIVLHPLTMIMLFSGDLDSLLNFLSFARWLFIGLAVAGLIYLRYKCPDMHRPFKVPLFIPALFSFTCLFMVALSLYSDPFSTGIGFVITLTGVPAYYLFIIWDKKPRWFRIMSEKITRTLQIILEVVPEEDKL
T1 sequence (P08195 1-529 partner): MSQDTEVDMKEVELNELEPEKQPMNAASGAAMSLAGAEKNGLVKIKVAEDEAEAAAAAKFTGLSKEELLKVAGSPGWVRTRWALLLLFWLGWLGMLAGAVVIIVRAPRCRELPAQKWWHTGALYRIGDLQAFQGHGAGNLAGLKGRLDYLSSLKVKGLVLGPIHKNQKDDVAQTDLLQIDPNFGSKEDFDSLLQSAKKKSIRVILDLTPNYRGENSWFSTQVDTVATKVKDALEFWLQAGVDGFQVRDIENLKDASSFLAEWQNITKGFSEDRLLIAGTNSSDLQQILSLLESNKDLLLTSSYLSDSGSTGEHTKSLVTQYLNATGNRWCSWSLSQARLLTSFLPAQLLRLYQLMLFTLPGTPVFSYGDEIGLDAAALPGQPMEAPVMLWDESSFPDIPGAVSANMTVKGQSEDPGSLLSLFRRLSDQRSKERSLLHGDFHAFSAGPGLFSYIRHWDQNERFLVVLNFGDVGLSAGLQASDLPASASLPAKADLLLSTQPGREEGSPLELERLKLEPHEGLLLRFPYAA
How it was run: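 IC50 (reported as pIC50) normalized to DMSO 1% and Erastin 50 μM controls, from Amplex Red fluorescence of glutamate exported into supernatant. H4 cells were washed into sodium-free buffer to exclude EAAT transport, then given compound with 50 μM L-cystine for 2 h in the incubator.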

system Xc^− [2] = molecular target: T1, system Xc^−; assay: [^14C]L-Cystine uptake assay; assay type: cell-based; design: endogenous in cells; host or cells: H4 cells; conditions: H4 cells, sodium-free HEPES buffer, 0.5 μM L-[14C]Cystine and 4.5 μM L-Cystine, 1 hour at 37° C.; read-out: pIC50 [^14C] L-Cystine uptake assay (converted)
How it was run: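 Compound effect is given as pIC50, taken between controls of 1% DMSO and 50 μM Erastin. Human H4 cells were pretreated 15 min with compound in sodium-free buffer, then took up 0.5 μM [14C]cystine with 4.5 μM cold cystine for 1 hour at 37° C, read by scintillation proximity counting.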

Structure (SMILES)	IC50 (system Xc^− [1]) [µM]	IC50 (system Xc^− [2]) [µM]
Cc1cc2c(c(F)n1)-c1c[nH]nc1CC(=O)N2CC(=O)Nc1ccc(C(F)(F)F)cc1 [#123, 2-(14-fluoro-12-methyl-8-oxo-4,5,9,13-tetrazatricyclo[8.4.0.0^2,6]tetradeca-1(10),2,5,11,13-pentaen-9-yl)-N-[4-(trifluoromethyl)phenyl]acetamide]	0.1 to 0.501	0.0398 to 0.1
Cc1cc2c(n(C)c1=O)-c1ccc(F)cc1C(C)C(=O)N2CC(=O)Nc1ccc(Cl)c(F)c1 (stereo not shown) [#354, N-(4-chloro-3-fluoro-phenyl)-2-(9-fluoro-1,3,7-trimethyl-2,6-dioxo-7H-pyrido[3,2-d][3]benzazepin-5-yl)acetamide]	0.0158 to 0.0398	< 0.0158
Cc1cc2c(c(Cl)n1)-c1cccnc1C(O)C(=O)N2CC(=O)Nc1ccc(C(F)(F)F)cc1 (stereo not shown) [#379, 2-(3-chloro-10-hydroxy-5-methyl-9-oxo-4,8,12-triazatricyclo[9.4.0.0^2,7]pentadeca-1(15),2(7),3,5,11,13-hexaen-8-yl)-N-[4-(trifluoromethyl)phenyl]acetamide]	0.0158 to 0.0398	< 0.0158
[2H]C([2H])([2H])[C@H]1C(=O)N(CC(=O)Nc2ccc(C(F)(F)F)cc2)c2cc(C)nc(F)c2-c2cccnc21 (single isomer, unassigned) [#203, Enantiomer (10R) or (10S) of 2-[3-fluoro-5-methyl-9-oxo-10-(trideuteriomethyl)-4,8,12-triazatricyclo[9.4.0.0^2,7]pentadeca-1(15),2(7),3,5,11,13-hexaen-8-yl]-N-[4-(trifluoromethyl)phenyl]acetamide]	0.0158 to 0.0398	< 0.0158
Cc1cc2c(c(=O)n1C)-c1ccc(F)cc1C(C)C(=O)N2CC(=O)Nc1ccc(C(F)F)cc1 (stereo not shown) [#256, N-[4-(difluoromethyl)phenyl]-2-(9-fluoro-2,3,7-trimethyl-1,6-dioxo-7H-pyrido[4,3-d][3]benzazepin-5-yl)acetamide]	< 0.0158	< 0.0158
CC1C(=O)N(CC(=O)Nc2ccc(C(F)F)cc2)c2ccnc(Cl)c2-c2cccnc21 (single isomer, unassigned) [#398, N-[4-(difluoromethyl)phenyl]-2-[3-chloro-10-methyl-9-oxo-4,8,12-triazatricyclo[9.4.0.0^2,7]pentadeca-1(11),2(7),3,5,12,14-hexaen-8-yl]acetamide]	0.0158 to 0.0398	0.0398 to 0.1
Cc1cc2c(c(F)n1)-c1ccc(C)nc1[C@@H](C)C(=O)N2CC(=O)Nc1ccc(C(F)(F)F)cc1 (single isomer, unassigned) [#204, Enantiomer (10R) or (10S) of 2-[3-fluoro-5,10,13-trimethyl-9-oxo-4,8,12-triazatricyclo[9.4.0.0^2,7]pentadeca-1(11),2(7),3,5,12,14-hexaen-8-yl]-N-[4-(trifluoromethyl)phenyl]acetamide]	0.0398 to 0.1	< 0.0158
CC1C(=O)N(CC(=O)Nc2ccc(C(F)F)cc2)c2cc(N3CC(C)(F)C3)nc(F)c2-c2cccnc21 (single isomer, unassigned) [#288, N-[4-(difluoromethyl)phenyl]-2-[3-fluoro-5-(3-fluoro-3-methyl-azetidin-1-yl)-10-methyl-9-oxo-4,8,12-triazatricyclo[9.4.0.0^2,7]pentadeca-1(15),2,4,6,11,13-hexaen-8-yl]acetamide]	< 0.0158	< 0.0158
COc1cc2c(c(=O)n1C)-c1ccccc1C(C)C(=O)N2CC(=O)Nc1ccc(C(F)F)cc1 (stereo not shown) [#362, N-[4-(difluoromethyl)phenyl]-2-(3-methoxy-2,7-dimethyl-1,6-dioxo-7H-pyrido[4,3-d][3]benzazepin-5-yl)acetamide]	0.0158 to 0.0398	< 0.0158
Cc1cc2c(c(=O)o1)-c1ccccc1C(C)C(=O)N2CC(=O)Nc1ccc(C(F)F)cc1 (single isomer, unassigned) [#359, N-[4-(difluoromethyl)phenyl]-2-[3,7-dimethyl-1,6-dioxo-7H-pyrano[4,3-d][3]benzazepin-5-yl]acetamide]	0.0158 to 0.0398	0.0158 to 0.0398
Cc1cncc2c1-c1ccccc1CC(=O)N2CC(=O)Nc1ccc(C(F)(F)F)cc1 [#45, 2-(1-methyl-6-oxo-7H-pyrido[3,4-d][3]benzazepin-5-yl)-N-[4-(trifluoromethyl)phenyl]acetamide]	0.0398 to 0.1	0.1 to 0.501
Cc1cc2c(c(F)n1)-c1cccnc1[C@@H](C)C(=O)N2CC(=O)Nc1ccc2c(c1)nnn2C [#147, 2-[(10R)-3-fluoro-5,10-dimethyl-9-oxo-4,8,12-triazatricyclo[9.4.0.0^2,7]pentadeca-1(11),2(7),3,5,12,14-hexaen-8-yl]-N-(1-methylbenzotriazol-5-yl)acetamide]	0.0398 to 0.1	0.1 to 0.501
CC1C(=O)N(CC(=O)Nc2ccc(C(F)F)cc2)c2cc(N3CC[C@H]3CO)nc(F)c2-c2cccnc21 (stereo partly drawn) [#272, N-[4-(difluoromethyl)phenyl]-2-[3-fluoro-5-[(2S)-2-(hydroxymethyl)azetidin-1-yl]-10-methyl-9-oxo-4,8,12-triazatricyclo[9.4.0.0^2,7]pentadeca-1(15),2,4,6,11,13-hexaen-8-yl]acetamide]	0.0158 to 0.0398	0.0158 to 0.0398
Cc1cc2c(c(F)n1)-c1cccc(=O)n1CC(=O)N2CC(=O)Nc1ccc(C(F)(F)F)cc1 [#102, 2-(3-fluoro-5-methyl-9,12-dioxo-4,8,11-triazatricyclo[9.4.0.0^2,7]pentadeca-1(15),2(7),3,5,13-pentaen-8-yl)-N-[4-(trifluoromethyl)phenyl]acetamide]	0.1 to 0.501	0.0398 to 0.1
COc1cc2c(c(Cl)n1)-c1cccnc1C(C)C(=O)N2CC(=O)Nc1ccc(C(F)F)cc1 (single isomer, unassigned) [#411, 2-(3-chloro-5-methoxy-10-methyl-9-oxo-4,8,12-triazatricyclo[9.4.0.0^2,7]pentadeca-1(11),2(7),3,5,12,14-hexaen-8-yl]-N-[4-(difluoromethyl)phenyl)acetamide]	< 0.0158	< 0.0158
Cc1cc2c(cn1)-c1ccc(C)nc1CC(=O)N2CC(=O)Nc1ccc(C(F)(F)F)cc1 [#71, 2-(5,13-dimethyl-9-oxo-4,8,12-triazatricyclo[9.4.0.0^2,7]pentadeca-1(11),2(7),3,5,12,14-hexaen-8-yl)-N-[4-(trifluoromethyl)phenyl]acetamide]	0.1 to 0.501	0.1 to 0.501
COc1nc(C)cc2c1-c1cccnc1CC(=O)N2CC(=O)Nc1ccc(C#N)cc1 [#77, N-(4-cyanophenyl)-2-(3-methoxy-5-methyl-9-oxo-4,8,12-triazatricyclo [9.4.0.0^2,7]pentadeca-1(11),2,4,6,12,14-hexaen-8-yl)acetamide]	0.0398 to 0.1	0.1 to 0.501
CC1C(=O)N(CC(=O)Nc2ccc(Cl)c(F)c2)c2cc(C3CN(CC(F)F)C3)cc(F)c2-c2cccnc21 (stereo not shown) [#345, N-(4-chloro-3-fluoro-phenyl)-2-[9-[1-(2,2-difluoroethyl)azetidin-3-yl]-11-fluoro-5-methyl-6-oxo-5H-pyrido[2,3-d][1]benzazepin-7-yl]acetamide]	0.0158 to 0.0398	0.0158 to 0.0398
O=C(CN1C(=O)Cc2ccccc2-c2cnccc21)Nc1ccc(C(F)(F)F)cc1 [#17, 2-(6-oxo-7H-pyrido [4,3-d][3]benzazepin-5-yl)-N-[4-(trifluoro-methyl)phenyl] acetamide]	0.1 to 0.501	0.1 to 0.501
COc1cc2c(cn1)-c1cc(F)cnc1C(C)C(=O)N2CC(=O)Nc1ccc(Cl)c(F)c1 (single isomer, unassigned) [#410, N-(4-chloro-3-fluoro-phenyl)-2-[14-fluoro-5-methoxy-10-methyl-9-oxo-4,8,12-triazatricyclo[9.4.0.0^2,7]pentadeca-1(15),2(7),3,5,11,13-hexaen-8-yl]acetamide]	0.0158 to 0.0398	0.0158 to 0.0398
